Earlier results on one compound are cited in publication PMC4306510 (Bioconjugate Chemistry, 2014).

The conditions of the data set: in 0.1 M aqueous NaOH.

With `O=C(O)c1ccc2c(c1)C(=O)OC21c2ccc(O)cc2Oc2cc(O)ccc21` [5-carboxy fluorescein], the “quantum yield of the standard” value is reported as 95%.
